Patent US12091424B2, “Rapamycin derivatives” (NOVARTIS AG, priority 2017, dated 2024)
pIC50, pKd: −log10 of the molar value.

How the values were obtained:
mTORC1 signaling = experiment: MEF TSC1−/− cell-based assay for rapalog potency (pS6); set-up: species or system Mouse; settings: MEF TSC1−/− cells, average from multiple assays
Method: Cell-based assay for rapalog potency determination. Rapalog potency was determined using MEF TSC1−/− cell based assay. MEF TSC1−/− cells are Mouse Embryonic Fibroblasts deficient in Tuberous sclerosis protein—TSC1, which negatively regulates mTORC1 signaling and thus display constitutive mTORC1 activation, resulting in phosphorylation (activation) of downstream molecules. This cell-based assay is used to measure inhibition (de-phosphorylation) of S6 and 4EBP1 by rapalogs or other mTOR inhibitors.
MEF TSC1−/− cells were plated on Poly-D-lysine coated 384 well Griener clear bottom plates and incubated overnight at 37° C., 5% CO2. […] Nuclei were visualized with Hoechst (ThermoFisher Scientific #H3570) staining. Cells were imaged (InCell 600) using respective fluorescence channels and the potency of mTOR inhibitors was defined by pS6 IC50 (nM).
In vitro potency of mTOR inhibitors was defined by pS6 IC50 (nM) in MEF TSC1−/− cells.

FKBP51 = FKBP51 (Homo sapiens (Human), UniProt Q13451); experiment: SPR assay, binding affinity to FKBP51; settings: single-cycle kinetics
FKBP51, sequence (Q13451 whole entry, the tested form may be a part): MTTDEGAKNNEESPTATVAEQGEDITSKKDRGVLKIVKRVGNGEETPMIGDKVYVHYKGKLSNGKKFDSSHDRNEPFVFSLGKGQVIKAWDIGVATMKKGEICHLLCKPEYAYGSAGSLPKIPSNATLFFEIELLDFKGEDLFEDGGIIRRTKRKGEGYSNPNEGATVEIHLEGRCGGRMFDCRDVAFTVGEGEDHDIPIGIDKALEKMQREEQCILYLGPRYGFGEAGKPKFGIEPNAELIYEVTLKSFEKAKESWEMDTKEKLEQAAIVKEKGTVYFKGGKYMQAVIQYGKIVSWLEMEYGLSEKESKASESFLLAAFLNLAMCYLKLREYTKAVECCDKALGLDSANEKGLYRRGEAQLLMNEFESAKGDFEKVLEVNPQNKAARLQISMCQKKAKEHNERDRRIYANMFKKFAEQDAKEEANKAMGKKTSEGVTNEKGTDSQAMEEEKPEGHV
Method: (§1) SPR Assay to Determine Binding Affinity to FK506-Binding Proteins (FKBP). N-terminal avi-his6 tagged FKBP fusions to FKBP12, FKBP51 and FKBP52 were expressed in E. coli and purified using standard chromatography. Each protein was subsequently immobilized on a streptavidin chip in a Biacore 8K SPR instrument (GE Healthcare). Using single-cycle kinetics, compound titrations were flowed at 45 uL/min over each surface using 2-minute association and 30-minute dissociation phases in a buffer containing 50 mM Tris pH 7.5/150 mM NaCl/0.01% Tween 20/1 mM DTT/2% DMSO. The data was fit using low molecular weight (LMW) single-cycle kinetics. The equilibrium dissociation constants (KD) are reported.

FKBP12 = FKBP12 (Homo sapiens (Human), UniProt P62942); experiment: SPR assay, binding affinity to FKBP12; settings: single-cycle kinetics
FKBP12, sequence (P62942 whole entry): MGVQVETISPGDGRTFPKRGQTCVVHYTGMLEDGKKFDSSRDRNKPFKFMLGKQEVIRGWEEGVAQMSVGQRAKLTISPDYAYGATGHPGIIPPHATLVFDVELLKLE
Method: as §1

FKBP52 = FKBP52 (Homo sapiens (Human), UniProt Q02790); experiment: SPR assay, binding affinity to FKBP52; settings: single-cycle kinetics
FKBP52, sequence (Q02790 whole entry): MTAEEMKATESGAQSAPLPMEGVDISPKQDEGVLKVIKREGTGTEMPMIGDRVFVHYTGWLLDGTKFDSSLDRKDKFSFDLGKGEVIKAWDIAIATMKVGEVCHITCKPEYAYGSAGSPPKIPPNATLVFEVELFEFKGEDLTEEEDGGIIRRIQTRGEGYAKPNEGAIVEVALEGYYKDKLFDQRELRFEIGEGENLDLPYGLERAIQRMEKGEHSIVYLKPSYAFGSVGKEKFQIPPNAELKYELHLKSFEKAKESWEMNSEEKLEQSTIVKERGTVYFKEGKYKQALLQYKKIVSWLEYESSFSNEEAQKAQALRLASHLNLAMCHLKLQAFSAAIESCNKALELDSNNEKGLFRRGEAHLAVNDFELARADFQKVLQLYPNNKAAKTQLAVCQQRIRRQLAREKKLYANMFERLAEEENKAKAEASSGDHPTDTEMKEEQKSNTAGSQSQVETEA
Method: as §1

Compound | pIC50 (mTORC1 signaling; Mus musculus) | further results
CO[C@@H]1C[C@H](C[C@@H](C)[C@@H]2CC[C@H](C)/C=C(\C)[C@@H](O)[C@@H](OC)C(=O)[C@H](C)C[C@H](C)/C=C/C=C/C=C(\C)[C@H](N3CCCS3(=O)=O)C[C@@H]3CC[C@@H](C)[C@@](O)(O3)C(=O)C(=O)N3CCCC[C@H]3C(=O)O2)CC[C@H]1OCCO [Example 16, (R)—C16-(1,1-dioxidoisothiazolidin-2-yl)-C32-deoxo-C40-(2-hydroxyethoxy)-rapamycin] | 9.19 | pKd (FKBP51): 5.39
CO[C@H]1C[C@@H]2CC[C@@H](C)[C@@](O)(O2)C(=O)C(=O)N2CCCC[C@H]2C(=O)O[C@H]([C@H](C)C[C@@H]2CC[C@@H](OP(C)(C)=O)[C@H](OC)C2)CC[C@H](C)/C=C(\C)[C@@H](O)[C@@H](OC)C(=O)[C@H](C)C[C@H](C)/C=C/C=C/C=C/1C [Intermediate 4] | 10.18 | –
CO[C@H]1C[C@@H]2CC[C@@H](C)[C@@](O)(O2)C(=O)C(=O)N2CCCC[C@H]2C(=O)O[C@H]([C@H](C)C[C@@H]2CC[C@@H](OCCO)[C@H](OC)C2)CC[C@H](C)/C=C(\C)[C@@H](O)[C@@H](OC)C(=O)[C@H](C)C[C@H](C)/C=C/C=C/C=C/1C [Intermediate 3] | 10.23 | –
CO[C@@H]1C[C@H](C[C@@H](C)[C@@H]2CC[C@H](C)/C=C(\C)[C@@H](O)[C@@H](OC)C(=O)[C@H](C)C[C@H](C)/C=C/C=C/C=C(\C)[C@@H](N3CCCS3(=O)=O)C[C@@H]3CC[C@@H](C)[C@@](O)(O3)C(=O)C(=O)N3CCCC[C@H]3C(=O)O2)CC[C@H]1O [Example 1, (S)—C16-(1,1-dioxidoisothiazolidin-2-yl)-C32-deoxo-rapamycin] | 8.62 | pKd (FKBP12): 9.46; pKd (FKBP51): 6.82; pKd (FKBP52): 6.76
CO[C@H]1C[C@@H]2CC[C@@H](C)[C@@](O)(O2)C(=O)C(=O)N2CCCC[C@H]2C(=O)O[C@H]([C@H](C)C[C@@H]2CC[C@H](n3cnnn3)[C@H](OC)C2)CC[C@H](C)/C=C(\C)[C@@H](O)[C@@H](OC)C(=O)[C@H](C)C[C@H](C)/C=C/C=C/C=C/1C [Intermediate 5] | 9.97 | –
CO[C@@H]1C[C@H](C[C@@H](C)[C@@H]2CC[C@H](C)/C=C(\C)[C@@H](O)[C@@H](OC)C(=O)[C@H](C)C[C@H](C)/C=C/C=C/C=C(\C)C(N3CCS3(=O)=O)C[C@@H]3CC[C@@H](C)[C@@](O)(O3)C(=O)C(=O)N3CCCC[C@H]3C(=O)O2)CC[C@H]1O (single isomer, unassigned) [Example 7, C16-(1,1-dioxido-1,2-thiazetidin-2-yl)-C32-deoxo-rapamycin] | – | pKd (FKBP12): 8.92; pKd (FKBP51): 6.54; pKd (FKBP52): 6.63
CO[C@@H]1C[C@H](C[C@@H](C)[C@@H]2CC[C@H](C)/C=C(\C)[C@@H](O)[C@@H](OC)C(=O)[C@H](C)C[C@H](C)/C=C/C=C/C=C(\C)C(N3CCCS3(=O)=O)C[C@@H]3CC[C@@H](C)[C@@](O)(O3)C(=O)C(=O)N3CCCC[C@H]3C(=O)O2)CC[C@H]1OP(C)(C)=O (single isomer, unassigned) [Example 15, C16-(1,1-dioxidoisothiazolidin-2-yl)-C32-deoxo-C40-dimethylphosphinyl-rapamycin] | – | pIC50 (mTORC1 signaling): 8.49
CO[C@@H]1C[C@H](C[C@@H](C)[C@@H]2CC[C@H](C)/C=C(\C)[C@@H](O)[C@@H](OC)C(=O)[C@H](C)C[C@H](C)/C=C/C=C/C=C(\C)C(N3CCCS3(=O)=O)C[C@@H]3CC[C@@H](C)[C@@](O)(O3)C(=O)C(=O)N3CCCC[C@H]3C(=O)O2)CC[C@@H]1n1cnnn1 (single isomer, unassigned) [Example 17] | 8.96 | –
CCOCCO[C@@H]1CC[C@@H](C[C@@H](C)[C@@H]2CC[C@H](C)/C=C(\C)[C@@H](O)[C@@H](OC)C(=O)[C@H](C)C[C@H](C)/C=C/C=C/C=C(\C)C(N3CCCS3(=O)=O)C[C@@H]3CC[C@@H](C)[C@@](O)(O3)C(=O)C(=O)N3CCCC[C@H]3C(=O)O2)C[C@H]1OC (single isomer, unassigned) [Example 18, C16-(1,1-dioxidoisothiazolidin-2-yl)-C32-deoxo-C40-(2-ethoxyethoxy)-rapamycin] | 8.81 | –

Continued, in another order:

pIC50 (mTORC1 signaling; Mus musculus) | Compound | further results
9.25 | CO[C@@H]1C[C@H](C[C@@H](C)[C@@H]2CC[C@H](C)/C=C(\C)[C@@H](O)[C@@H](OC)C(=O)[C@H](C)C[C@H](C)/C=C/C=C/C=C(\C)C(N3CCS3(=O)=O)C[C@@H]3CC[C@@H](C)[C@@](O)(O3)C(=O)C(=O)N3CCCC[C@H]3C(=O)O2)CC[C@H]1OP(C)(C)=O (single isomer, unassigned) [Example 10, C16-(1,1-dioxido-1,2-thiazetidin-2-yl)-C32-deoxo-C40-dimethylphosphinyl-rapamycin] | pKd (FKBP51): 7.02
8.84 | CO[C@@H]1C[C@H](C[C@@H](C)[C@@H]2CC[C@H](C)/C=C(\C)[C@@H](O)[C@@H](OC)C(=O)[C@H](C)C[C@H](C)/C=C/C=C/C=C(\C)C(N3CCC3=O)C[C@@H]3CC[C@@H](C)[C@@](O)(O3)C(=O)C(=O)N3CCCC[C@H]3C(=O)O2)CC[C@H]1O (single isomer, unassigned) [Example 3] | –
< 6.30 | CO[C@@H]1C[C@H](C[C@@H](C)[C@@H]2CC[C@H](C)/C=C(\C)[C@@H](O)[C@@H](OC)C(=O)[C@H](C)C[C@H](C)/C=C/C=C/C=C(\C)C(N3CCN(C)C3=O)C[C@@H]3CC[C@@H](C)[C@@](O)(O3)C(=O)C(=O)N3CCCC[C@H]3C(=O)O2)CC[C@H]1O (single isomer, unassigned) [Example 4, C16-(3-methylimidazolidin-2-one-1-yl)-C32-deoxo-rapamycin] | –
9.43 | CO[C@@H]1C[C@H](C[C@@H](C)[C@@H]2CC[C@H](C)/C=C(\C)[C@@H](O)[C@@H](OC)C(=O)[C@H](C)C[C@H](C)/C=C/C=C/C=C(\C)C(N3CCS3(=O)=O)C[C@@H]3CC[C@@H](C)[C@@](O)(O3)C(=O)C(=O)N3CCCC[C@H]3C(=O)O2)CC[C@@H]1n1cnnn1 (single isomer, unassigned) [Example 12] | –
10.04 | CO[C@H]1C[C@@H]2CC[C@@H](C)[C@@](O)(O2)C(=O)C(=O)N2CCCC[C@H]2C(=O)O[C@H]([C@H](C)C[C@@H]2CC[C@@H](O)[C@H](OC)C2)CC[C@H](C)/C=C(\C)[C@@H](O)[C@@H](OC)C(=O)[C@H](C)C[C@H](C)/C=C/C=C/C=C/1C [Intermediate 1, C32-deoxo-rapamycin, reference compound] | –
8.48 | CO[C@@H]1C[C@H](C[C@@H](C)[C@@H]2CC[C@H](C)/C=C(\C)[C@@H](O)[C@@H](OC)C(=O)[C@H](C)C[C@H](C)/C=C/C=C/C=C(\C)C(N3CCS3(=O)=O)C[C@@H]3CC[C@@H](C)[C@@](O)(O3)C(=O)C(=O)N3CCCC[C@H]3C(=O)O2)CC[C@H]1OP(C)(C)=O (single isomer, unassigned) [Example 11, C16-(1,1-dioxido-1,2-thiazetidin-2-yl)-C32-deoxo-C40-dimethylphosphinyl-rapamycin] | –
6.82 | CO[C@@H]1C[C@H](C[C@@H](C)[C@@H]2CC[C@H](C)/C=C(\C)[C@@H](O)[C@@H](OC)C(=O)[C@H](C)C[C@H](C)/C=C/C=C/C=C(\C)C(N3CCN(CCO)C3=O)C[C@@H]3CC[C@@H](C)[C@@](O)(O3)C(=O)C(=O)N3CCCC[C@H]3C(=O)O2)CC[C@H]1O (single isomer, unassigned) [Example 5] | –
